Results published in paper PMC10165273, “Itch receptor MRGPRX4 interacts with the receptor activity–modifying proteins” (The Journal of Biological Chemistry, 2023).
Converted amounts (≈) assume the structure as drawn. “And” between values parts separate entries of the source, which are not always exact repeats. Equal entries are not always repeated. *1 amine or outer side, *2 acyl side, *3 side chain or, on linkers, in order; H or OH if unused. Where a SMILES comes first, the peptide text is derived from it. Bridges are numbered along the chain shown (N, C = ends). [ ]: non-standard residue; d: D form. X1 = CC(=O)NC(C(=O)OC(C(C)C)C(N[*:1])C(=O)[*:2])C(O)C(C)C; PhLac = O=C(O)[CH](O)Cc1ccccc1; NMeT = CN[CH](C(=O)O)[CH](C)O; NMeA = CN[CH](C)C(=O)O; NMeDha = C=C(NC)C(=O)O

Columns and labels:
[1] = test system: mock-transfected HEK293T cells; assay: IP1 accumulation, mock-transfected cells; assay type: cell-based, human; set-up: IP1 Basal / IP1 span / IP1 Emax / IP1 accumulation, dose-response (Figure 1a) / IP1 accumulation with YM (Figure 1c) / IP1 accumulation: unit not given here; details: for IP1 Basal / IP1 Emax / IP1 span: Mock
Procedure: (§1) HEK293T cells were transfected with 1 pg/cell of MRGPRX4 DNA, and the amount of DNA was kept constant at 2 pg/cell with pcDNA3.1(+) empty vector, unless otherwise specified. Twenty four hours after transfection, IP1 assay was performed as previously described ([51]). When applicable, cells were treated with 1 μM YM254890 (YM) or different concentrations of U73122 for 1 h prior to addition of agonist or buffer. After incubation for 2 h, HTRF reagents and IP1 calibration standards were added and incubated for 2 h in the dark at room temperature. Time-resolved fluorescence signals were read on the BioTek Synergy NEO-TRF Hybrid multi-mode reader (BioTek Instruments). All data were carried out in three independent experiments with three technical replicate each.
(§2) Validation of CALCRL constructs was assayed by cotransfecting HEK293T cells with different tagged versions of CALCRL alone or with each RAMP and with the promiscuous Gqs5 Gq chimera protein, at a respective DNA ratio of 1:1:0.5. Gqs5 is an engineered Gq protein containing the last five amino acid residues of Gs, which allows Gs-coupled GPCRs to signal through Gq downstream signaling pathways ([55]). The homogenous transfection method described above was used for all DNA mixes. CALCRL:RAMP2:Gqs5-transfected cells served as positive control for RAMP functionality.
(§3) Data reduction, standard calibration, and transformation of HTRF data were performed as previously described ([51]). Normalized IP1 values were calculated relative to the unstimulated mock-transfected cells (set to 0%) and fully stimulated MRGPRX4 (alone if applicable) (set to 100%).

CALCRL = biological target: T1, CALCRL (Homo sapiens, UniProt Q16602); assay: IP1 accumulation, CALCRL alone with Gqs5; assay type: cell-based
T1 construct: 5-HT3a receptor signal peptide (X1) (N); expressed in transfected cells; host or cells: HEK293T
Procedure: as §2, §3

CALCRL + RAMP3 = biological target: T2, CALCRL + RAMP3 (Homo sapiens, UniProt O60896+Q16602); assay: IP1 accumulation, CALCRL with RAMP3 and Gqs5; assay type: cell-based
T2 construct: 5-HT3a receptor signal peptide (X1) (N); expressed in transfected cells; host or cells: HEK293T
Procedure: as §2, §3

MRGPRX4 = biological target: T3, MRGPRX4 (Homo sapiens, UniProt Q96LA9); assay: IP1 accumulation HTRF assay, MRGPRX4; assay type: cell-based; set-up: key to IP1 Basal / IP1 accumulation with YM (Figure 1c) / response to agonist, MRGPRX4 / IP1 accumulation: % IP1: unstimulated mock-transfected = 0%, fully stimulated MRGPRX4 = 100%; details: for effect on nateglinide and DCA IP1 responses: inhibitor pretreatment 1 h (Fig. S1D-E); for effect on MRGPRX4 basal IP1 activity: no agonist (Figs. 1C and S1E); for IP1 accumulation with YM (Figure 1c): YM 1 µM, no agonist
T3 construct: expressed in transfected cells; host or cells: HEK293T
Procedure: as §1
(§4) For characterization of the Tet-On Nluc-HT7-MRGPRX4-GFP10-1D4 construct, HEK293T cells were transfected as previously described with some modifications. Dox dose-response of NLuc-HT7-MRGPRX4-GFP10-1D4 DNA titration was assayed by transfecting HEK293T cells with either 1 or 2 pg/cell of NLuc-HT7-MRGPRX4-GFP10-1D4 construct. Receptor expression was induced 4 h after transfection with addition of different concentrations of dox for 20 h. For the RAMP DNA titration assay, cells were cotransfected with a constant amount of 1 pg/cell of NLuc-HT7-MRGPRX4-GFP10-1D4 DNA and 1, 0.75, 0.5, or 0 pg/cell of each HA-RAMP-OLLAS with the homogenous transfection method. Four hours after transfection, receptor expression was induced with addition of 1000 ng/ml dox. Twenty hours after induction, IP1 assay was performed.
as §3

Tet-On MRGPRX4 = assay: dox-induced total receptor expression, Nano-Glo luminescence; assay type: cell-based, human; details: normalized total luminescence (Fig. S5I); for EC50: Homo sapiens
Procedure: as §4
HEK293T cells were transfected with 1 pg/cell of Tet-On FLAG-NLuc-HT7-MRGPRX4-GFP10-1D4 alone or coexpressed with 0.7, 0.5, 0.3, or 0.1 pg/cell of each RAMP, and expression was induced 4 h after transfection with 1000 ng/ml dox. HEK293T cells transfected with 1 pg/cell of Tet-On CALCRL alone or with 0.5 pg/cell of RAMP2 served as controls. Twenty hours after transfection, media was replaced with BRET buffer. First, the HT7-tagged GPCR was labeled with “pulse” of 100 nM HaloTag Alexa Fluor 660 (cell impermeable, emission 690 nm) for 2 h at 16 °C in the dark. Next, a chase step was performed by adding 100 nM HaloTag 618 (cell permeable, emission 620 nm) for 2 h at 16 °C in the dark. Lastly, Nano-Glo Luciferase assay reagent was prepared per manufacturer’s instructions. Optimal dosage of dox was determined by selecting the concentration at the plateau from a dox dose-response experiment, in which dox-induced expression was assayed with the additional of Nano-Glo Luciferase assay reagent (Fig. S5I).
Data were acquired by measuring the luminescence at 460, 618, and 690 nm in kinetics mode on a SpectraMax i3X at 37 °C. The obtained emission intensity values were corrected, normalized, plotted against each other, and fitted to a linear equation to generate a scaling factor that was then used to calculate and graph the percentage surface labeling. Experiments were conducted in biological triplicate with three technical replicates each. The corrected 690/460 BRET ratio was normalized to the mean of MRGPRX4 alone (+dox). Similarly, total expression was normalized to the mean of the 460 nm luminescence for MRGPRX4 alone (+dox).

[2] = HA-CALCRL-1D4 series (Fig. S4J-L)
[3] = HA-CALCRL-GFP10-1D4 series (Fig. S4G-I)
[4] = HA-CALCRL-1D4 alone (Fig. S4J-L)
[5] = HA-CALCRL-GFP10-1D4 alone (Fig. S4G-I)
[6] = HA-CALCRL-1D4 + FLAG-RAMP3-OLLAS (Fig. S4J-L)
[7] = HA-CALCRL-1D4 + HA-RAMP3-OLLAS (Fig. S4J-L)
[8] = HA-CALCRL-GFP10-1D4 + FLAG-RAMP3-OLLAS (Fig. S4G-I)
[9] = HA-CALCRL-GFP10-1D4 + HA-RAMP3-OLLAS (Fig. S4G-I)
[10] = Tet-On MRGPRX4+RAMP2 (DNA ratio 1:0.5)

T3 sequence (Q96LA9 whole entry): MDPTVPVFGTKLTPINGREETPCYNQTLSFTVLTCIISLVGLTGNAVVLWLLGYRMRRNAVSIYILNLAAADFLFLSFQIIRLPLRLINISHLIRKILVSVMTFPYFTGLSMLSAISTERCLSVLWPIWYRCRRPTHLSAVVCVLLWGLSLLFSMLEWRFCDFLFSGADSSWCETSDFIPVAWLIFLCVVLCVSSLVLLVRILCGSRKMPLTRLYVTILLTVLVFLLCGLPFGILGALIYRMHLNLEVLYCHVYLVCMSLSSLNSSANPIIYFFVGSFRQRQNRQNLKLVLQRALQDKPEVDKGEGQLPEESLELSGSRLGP
T2 sequence (Q16602 23-461): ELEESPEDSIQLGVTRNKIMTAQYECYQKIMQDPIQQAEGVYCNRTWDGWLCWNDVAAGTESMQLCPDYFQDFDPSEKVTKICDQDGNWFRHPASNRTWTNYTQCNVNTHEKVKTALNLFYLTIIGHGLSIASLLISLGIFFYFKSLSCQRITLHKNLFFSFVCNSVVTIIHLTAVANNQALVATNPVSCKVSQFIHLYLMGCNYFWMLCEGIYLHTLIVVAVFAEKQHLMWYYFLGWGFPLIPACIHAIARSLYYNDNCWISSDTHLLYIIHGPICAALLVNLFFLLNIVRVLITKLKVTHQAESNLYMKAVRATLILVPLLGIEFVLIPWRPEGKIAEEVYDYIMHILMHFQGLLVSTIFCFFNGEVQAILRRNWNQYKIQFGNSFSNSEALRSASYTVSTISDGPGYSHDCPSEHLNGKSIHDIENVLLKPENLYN
T2 sequence (O60896 28-148 limits assumed): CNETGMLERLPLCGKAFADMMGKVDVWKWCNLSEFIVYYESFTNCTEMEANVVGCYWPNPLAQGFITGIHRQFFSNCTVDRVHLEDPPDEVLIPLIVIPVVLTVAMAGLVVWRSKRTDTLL
T1 sequence (Q16602 23-461): as the sequence (Q16602 23-461) above

CC[C@H](C)[C@H](NC(=O)[C@H](CCC(N)=O)NC(=O)[C@H](Cc1c[nH]cn1)NC(=O)[C@H](C)NC(=O)[C@H](CC(C)C)NC(=O)[C@H](CCCCN)NC(=O)[C@H](CCC(N)=O)NC(=O)[C@@H](NC(=O)[C@@H](NC(=O)[C@@H]1CSSC[C@H](NC(=O)CNC(=O)[C@H](Cc2ccccc2)NC(=O)[C@H](CO)NC(=O)[C@H](CCCNC(=N)N)NC(=O)[C@H](CC(C)C)NC(=O)CNC(=O)[C@H](CCC(N)=O)NC(=O)[C@H](Cc2ccccc2)NC(=O)[C@H](CC(N)=O)NC(=O)[C@H](CC(N)=O)NC(=O)[C@H](CCSC)NC(=O)[C@H](CO)NC(=O)[C@H](CCC(N)=O)NC(=O)[C@H](CCCNC(=N)N)NC(=O)[C@@H](N)Cc2ccc(O)cc2)C(=O)N[C@@H](CCCNC(=N)N)C(=O)N[C@@H](Cc2ccccc2)C(=O)NCC(=O)N[C@@H]([C@@H](C)O)C(=O)N1)[C@@H](C)O)C(C)C)C(=O)N[C@@H](Cc1ccc(O)cc1)C(=O)N[C@@H](CCC(N)=O)C(=O)N[C@@H](Cc1ccccc1)C(=O)N[C@H](C(=O)N[C@@H](CC(=O)O)C(=O)N[C@@H](CCCCN)C(=O)N[C@@H](CC(=O)O)C(=O)N[C@@H](CCCCN)C(=O)N[C@@H](CC(=O)O)C(=O)N[C@@H](CC(N)=O)C(=O)N[C@H](C(=O)N[C@@H](C)C(=O)N1CCC[C@H]1C(=O)N[C@@H](CCCNC(=N)N)C(=O)N[C@@H](CO)C(=O)N[C@@H](CCCCN)C(=O)N[C@H](C(=O)N[C@@H](CO)C(=O)N1CCC[C@H]1C(=O)N[C@@H](CCC(N)=O)C(=O)NCC(=O)N[C@@H](Cc1ccc(O)cc1)C(N)=O)[C@@H](C)CC)C(C)C)[C@@H](C)O [Adrenomedullin]
IP1 Basal [1, 2]: 0.9133 | IP1 Emax [1, 2]: 0.05397 | IP1 span [1, 2]: -0.8593 | IP1 Basal [1, 3]: 0.1993 | IP1 Emax [1, 3]: 11.54 | IP1 span [1, 3]: 11.34 | IP1 Basal (CALCRL; [4]): 11.35 | IP1 span (CALCRL; [4]): Unstable | Emax (CALCRL; [5]): 10.5% | IP1 Basal (CALCRL; [5]): 4.246 | Span (CALCRL; [5]): 6.24% | Emax (CALCRL + RAMP3; [6]): 96% | IP1 Basal (CALCRL + RAMP3; [6]): 9.152 | IP1 span (CALCRL + RAMP3; [6]): 86.8% | Emax (CALCRL + RAMP3; [7]): 108% | IP1 Basal (CALCRL + RAMP3; [7]): 8.590 | IP1 span (CALCRL + RAMP3; [7]): 99.5% | Emax (CALCRL + RAMP3; [8]): 84.9% | IP1 Basal (CALCRL + RAMP3; [8]): 11.09 | IP1 span (CALCRL + RAMP3; [8]): 73.8% | Emax (CALCRL + RAMP3; [9]): 102% | IP1 Basal (CALCRL + RAMP3; [9]): 9.590 | IP1 span (CALCRL + RAMP3; [9]): 92%

COc1ccc2c(c1)CC[C@@H]1[C@@H]2CC[C@]2(C)[C@@H](NCCCCCCN3C(=O)C=CC3=O)CC[C@@H]12 [U73122]
IP1 accumulation (MRGPRX4; MRGX4, Basal, U73122 30uM, Fig S1e): 3.194 and 5.28 | effect on nateglinide and DCA IP1 responses (MRGPRX4): inhibited | effect on MRGPRX4 basal IP1 activity (MRGPRX4): abolished

C=C1C(=O)NC(C)C(=O)N(C)C(C)C(=O)NC(C(OC(=O)C(NC(C)=O)C(O)C(C)C)C(C)C)C(=O)N(C)C(C(C)OC)C(=O)OC(C)C(NC(C)=O)C(=O)OC(Cc2ccccc2)C(=O)N1C (centres unmarked) [YM254890] (Ac-T[PhLac][NMeDha]A[NMeA][X1][NMeT](Me); ester 1-C; configuration not given here)
IP1 accumulation with YM (Figure 1c) (MRGPRX4; MRGPRX4 0.125 pg DNA/cell): 1.405 | IP1 accumulation with YM (Figure 1c) (MRGPRX4; MRGPRX4 0.25 pg DNA/cell): 1.309 | IP1 accumulation with YM (Figure 1c) (MRGPRX4; MRGPRX4 0.5 pg DNA/cell): 1.374 | IP1 accumulation with YM (Figure 1c) (MRGPRX4; MRGPRX4 1 pg DNA/cell): 1.6019 | IP1 accumulation with YM (Figure 1c) (MRGPRX4; MRGPRX4 2 pg DNA/cell): 1.692 | effect on nateglinide and DCA IP1 responses (MRGPRX4): inhibited | effect on MRGPRX4 basal IP1 activity (MRGPRX4): abolished | IP1 accumulation with YM (Figure 1c) ([1]; YM 1 µM, MRGPRX4 0 pg DNA/cell, no agonist): 1.719

C[C@H]1c2cccc(O)c2C(=O)C2=C(O)[C@]3(O)C(=O)C(C(N)=O)=C(O)[C@@H](N(C)C)[C@@H]3[C@@H](O)[C@@H]21 [dox, doxycycline]
EC50 (Tet-On MRGPRX4; [10]): 8.07 ng/mL | EC50 (Tet-On MRGPRX4; Tet-On MRGPRX4 alone): 4.05 ng/mL (≈ 9.1 nM) | total expression Basal (Tet-On MRGPRX4; [10]): 0.003719 | total expression Emax (Tet-On MRGPRX4; [10]): 0.7930 | total expression logEC50 (Tet-On MRGPRX4; [10]): 0.9067 | total expression span (Tet-On MRGPRX4; [10]): 0.7893 | total expression Basal (Tet-On MRGPRX4; Tet-On MRGPRX4 alone): 0.009273 | total expression Emax (Tet-On MRGPRX4; Tet-On MRGPRX4 alone): 0.9497 | total expression logEC50 (Tet-On MRGPRX4; Tet-On MRGPRX4 alone): 0.6070 | total expression span (Tet-On MRGPRX4; Tet-On MRGPRX4 alone): 0.9404
